The subject of data set [1] is EphB2 tyrosine kinase, Cos1 cells. Kind of data set: EphB2 kinase activation by pre-clustered EB2-Fc in Cos1 cells, immunoblot. The data set is classed as cell-based. Conditions: 30 min, listed as A20. How it is done:
To assess if A20 would reduce the ability of EphrinB2 to stimulate activation of the EphB tyrosine kinase domain in live cells, Cos1 cells that express endogenous EphB2 were exposed to pre-clustered EB2-Fc ectodomains in the presence or absence of A20 for 30 min. […] Stimulated cells were fixed on the coverslip and subjected to immunofluorescence (IF) with anti-Fc antibodies to detect ligand protein bound to receptor, which leads to formation of circular Eph-Ephrin tetramers that then cluster into large obvious spots on the cell surface by lateral migration through the plasma membrane and also contain anti-phosphotyrosine signal indicating activation of the receptor's kinase domain.

Data set [2] has as its system normal human dermal fibroblast (NHDF) cells. Kind of data set: MTT cytotoxicity. It counts as cell-based. Conditions: up to 10 μM, 48 hr. How it is done:
Potential cytotoxicity of A20 was evaluated using MTT assay performed after culturing normal human dermal fibroblast (NHDF) cells with increasing concentrations of A20 for 48 hr.

In data set [3] the target is T1, EphrinB2-EphB4 (Homo sapiens, UniProt P54760).
T1 construct: soluble human EphB1-His, EphB2-His, and EphB4-His ectodomains; commercially available human EphrinB1-Fc (EB1), EphrinB2-Fc (EB2), and EphrinB3-Fc (EB3) ectodomain proteins; purchased
T1 sequence (P54760 16-539 limits assumed): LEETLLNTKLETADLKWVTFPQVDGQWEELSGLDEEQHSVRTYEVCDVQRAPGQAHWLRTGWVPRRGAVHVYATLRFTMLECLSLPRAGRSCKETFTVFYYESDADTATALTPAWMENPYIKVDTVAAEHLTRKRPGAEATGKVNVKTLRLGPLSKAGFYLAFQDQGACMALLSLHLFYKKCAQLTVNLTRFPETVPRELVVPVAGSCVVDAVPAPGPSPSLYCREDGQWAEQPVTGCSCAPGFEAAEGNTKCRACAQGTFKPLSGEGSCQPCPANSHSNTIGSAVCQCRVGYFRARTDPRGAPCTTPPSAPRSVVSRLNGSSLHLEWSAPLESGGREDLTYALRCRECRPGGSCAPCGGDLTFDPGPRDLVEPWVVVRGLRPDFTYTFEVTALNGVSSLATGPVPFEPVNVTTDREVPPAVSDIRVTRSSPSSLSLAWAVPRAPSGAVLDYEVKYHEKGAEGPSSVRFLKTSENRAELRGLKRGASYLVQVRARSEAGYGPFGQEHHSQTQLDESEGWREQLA
Kind of data set: Octet, immobilized human EphrinB2 binding to 50 nM soluble human EphB4. How it is done: Studies were conducted to confirm that A20 chemicals can effectively target the human Eph/Ephrin proteins. Octet system was used to first characterize the biophysical interactions of the human B class Eph and Ephrin proteins, and then was tested to assess how A20 may disrupt the interactions. Since the human and rodent proteins are highly conserved, and essentially identical, with EphB2 sharing 99.5% identity between human and mouse, with only 5 of ~1,000 amino acids different, any species-specific differences were not anticipated. Therefore, commercially available human EphrinB1-Fc (EB1), EphrinB2-Fc (EB2), and EphrinB3-Fc (EB3) ectodomain proteins were sparsely immobilized onto biosensors and then exposed to 50 nM of soluble human EphB1-His, EphB2-His, and EphB4-His ectodomains for 800 sec association and 1,000 sec dissociation steps with a total of nine different interactions analyzed. In the absence of A20 chemical, the immobilized human EphrinB proteins bound to their appropriate human EphB target proteins; with EphrinB1 only bound EphB1 and EphB2, EphrinB2 bound all three EphB1, EphB2, and EphB4, and EphrinB3 only bound EphB1 and EphB2 (FIG. 19A-19B). […]

For data set [4], the target named is EphrinB3-EphB2 (Homo sapiens, UniProt P29323). Kind of data set: Octet, immobilized human EphrinB3 binding to human EphB2. How it is done:
Studies were conducted to confirm that A20 chemicals can effectively target the human Eph/Ephrin proteins. Octet system was used to first characterize the biophysical interactions of the human B class Eph and Ephrin proteins, and then was tested to assess how A20 may disrupt the interactions. Since the human and rodent proteins are highly conserved, and essentially identical, with EphB2 sharing 99.5% identity between human and mouse, with only 5 of ~1,000 amino acids different, any species-specific differences were not anticipated. Therefore, commercially available human EphrinB1-Fc (EB1), EphrinB2-Fc (EB2), and EphrinB3-Fc (EB3) ectodomain proteins were sparsely immobilized onto biosensors and then exposed to 50 nM of soluble human EphB1-His, EphB2-His, and EphB4-His ectodomains for 800 sec association and 1,000 sec dissociation steps with a total of nine different interactions analyzed. In the absence of A20 chemical, the immobilized human EphrinB proteins bound to their appropriate human EphB target proteins; with EphrinB1 only bound EphB1 and EphB2, EphrinB2 bound all three EphB1, EphB2, and EphB4, and EphrinB3 only bound EphB1 and EphB2 (FIG. 19A-19B).
Addition of compound also altered dissociation kinetics. […] This is referred to as the “unsurmountable” component of the Eph-Ephrin interaction (FIG. 21C). Additionally, AUC data was graphed for these runs (FIG. 21D). […]
A general note: BLI is a label-free optical method that tracks binding on a fibre tip over time.

Here are results for one compound from patent US20260374739A1, “SMALL MOLECULAR WEIGHT CHEMICAL COMPOUND TO ANTAGONIZE EPH-EPHRIN TETRAMERIZATION AND INHIBIT BIDIRECTIONAL SIGNALING” (THE BOARD OF REGENTS OF THE UNIVERSITY OF TEXAS SYSTEM, priority 2022, published 2026).

Each structure is given as a SMILES string. “Also recorded” adds a separate entry of the source.

EphrinB3-EphB2, sequence (P29323 19-543 limits assumed): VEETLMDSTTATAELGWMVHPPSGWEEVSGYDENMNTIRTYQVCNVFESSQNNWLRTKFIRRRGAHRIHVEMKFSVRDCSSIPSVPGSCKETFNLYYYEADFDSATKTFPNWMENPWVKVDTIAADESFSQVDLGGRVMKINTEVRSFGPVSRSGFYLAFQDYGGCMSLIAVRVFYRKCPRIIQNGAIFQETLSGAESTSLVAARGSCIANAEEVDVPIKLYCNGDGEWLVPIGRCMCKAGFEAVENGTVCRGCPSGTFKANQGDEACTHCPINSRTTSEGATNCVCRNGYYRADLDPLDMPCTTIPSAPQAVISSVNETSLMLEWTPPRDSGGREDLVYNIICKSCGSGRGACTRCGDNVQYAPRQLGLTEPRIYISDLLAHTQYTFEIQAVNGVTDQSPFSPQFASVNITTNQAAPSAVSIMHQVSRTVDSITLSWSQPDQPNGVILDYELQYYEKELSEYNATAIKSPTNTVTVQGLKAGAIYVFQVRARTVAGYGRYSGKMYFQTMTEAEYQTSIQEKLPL

On to `Oc1c(Br)cc(CN2CCOCC2)c2cccnc12` [Compound 5, 7-bromo-5-(morpholinomethyl)quinolin-8-ol], for which, in data set [1], the “EphB2 kinase activity” value was “caused a dose-dependent reduction in EphB2 kinase activity; also recorded: antagonizes EB2 stimulation of EphB2 catalytic activity”. In data set [2], the “cytotoxicity” value was “not toxic”. The “absolute IC50” value in data set [3] (A20 salt up to 100 μM) is recorded as “absence of an absolute IC50”. Also, in data set [3] (in presence of A20, role: inhibitor, 5° without), the association slope was determined as 3 °. Further, in data set [4] (EB3-EphB2, A20, read-out: reduction of tetramers), the inhibition at 1 µM is about 45%. Besides, in data set [4] (read-out: concentration producing maximum inhibition), the IC (maximum) turned out to be 1 µM.
